The source of these data is patent publication US8012979B2, “Compounds and their uses 707” (AstraZeneca AB, priority 2007, dated 2011).

The target of this test is T1, human active recombinant p38α-6His tagged (Homo sapiens, UniProt Q16539).
T1 construct: 6His
T1 sequence (Q16539 whole entry): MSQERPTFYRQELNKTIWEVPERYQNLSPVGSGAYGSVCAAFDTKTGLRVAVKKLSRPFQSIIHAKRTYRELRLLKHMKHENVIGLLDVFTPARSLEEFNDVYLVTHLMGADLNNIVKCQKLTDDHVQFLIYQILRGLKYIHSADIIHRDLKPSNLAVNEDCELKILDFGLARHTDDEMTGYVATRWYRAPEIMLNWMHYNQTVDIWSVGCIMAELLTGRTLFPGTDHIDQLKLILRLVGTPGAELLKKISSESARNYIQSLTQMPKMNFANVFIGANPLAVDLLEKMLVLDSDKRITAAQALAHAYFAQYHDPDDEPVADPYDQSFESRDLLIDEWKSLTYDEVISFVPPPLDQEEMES
As to the kind of experiment: p38 Alpha Enzyme Assay (AlphaScreen, biotinylated-ATF2 substrate). Type of test: biochemical. Particulars: pre-incubated 4 hours at 37° C., reaction initiated with ATP; 0.5 nM enzyme; read-out: p38 pIC50 (converted). On the technique in general: Bead proximity is the source of the signal in Alpha formats.
As to `Cc1ccc(C(=O)NC2CC2)cc1-c1ccc2c(=O)n(CCCN3CCCC3)ccc2c1` [Example 13, N-Cyclopropyl-4-methyl-3-[1-oxo-2-(3-pyrrolidin-1-yl-propyl)-1,2-dihydro-isoquinolin-6-yl]-benzamide], the IC50 was 316 nM.
On to `Cc1ccc(C(=O)NC2CC2)cc1-c1ccc2c(=O)n(Cc3ccc(C4CCNCC4)cc3)cc(C)c2c1` [Example 97, N-Cyclopropyl-4-methyl-3-(4-methyl-1-oxo-2-(4-(piperidin-4-yl)benzyl)-1,2-dihydroisoquinolin-6-yl)benzamide], for which the IC50 is 0.251 nM.
For `Cc1ccc(C(=O)NC2CC2)cc1-c1ccc2c(=O)n(Cc3ccc(C(=O)NCCN(C)C)cc3)ccc2c1` [Example 19, N-Cyclopropyl-3-(2-(4-(2-(dimethylamino)ethylcarbamoyl)benzyl)-1-oxo-1,2-dihydroisoquinolin-6-yl)-4-methylbenzamide] the value was 1 nM; for `Cc1ccc(C(=O)NC2CC2)cc1-c1ccc2c(=O)n(Cc3ccncc3)cc(C(=O)N3CCC(N4CCCC4)CC3)c2c1` [Example 54, N-Cyclopropyl-4-methyl-3-(1-oxo-2-(pyridin-4-ylmethyl)-4-(4-(pyrrolidin-1-yl)piperidine-1-carbonyl)-1,2-dihydroisoquinolin-6-yl)benzamide], 25.1 nM.
In the case of `CNC1CCN(Cc2cn(CC3CC3)c(=O)c3ccc(-c4cc(C(=O)NC5CC5)cc(F)c4C)cc23)CC1` [Example 81, N-Cyclopropyl-3-(2-(cyclopropylmethyl)-4-((4-(methylamino)piperidin-1-yl)methyl)-1-oxo-1,2-dihydroisoquinolin-6-yl)-5-fluoro-4-methylbenzamide], the IC50 is 0.1 nM.
For `Cc1c(F)cc(C(=O)NC2CC2)cc1-c1ccc2c(=O)n(CC3CC3)cc(CN3CCC[C@@H]3CN)c2c1` [Example 120, (R)-3-(4-((2-(Aminomethyl)pyrrolidin-1-yl)methyl)-2-(cyclopropylmethyl)-1-oxo-1,2-dihydroisoquinolin-6-yl)-N-cyclopropyl-5-fluoro-4-methylbenzamide] the value was 0.794 nM; for `CC[C@H]1CN(Cc2cn(CC3CC3)c(=O)c3ccc(-c4cc(C(=O)NC5CC5)cc(F)c4C)cc23)CCN1` [Example 116, (S)—N-Cyclopropyl-3-(2-(cyclopropylmethyl)-4-((3-ethylpiperazin-1-yl)methyl)-1-oxo-1,2-dihydroisoquinolin-6-yl)-5-fluoro-4-methylbenzamide], 0.501 nM.
For `CONC(=O)c1ccc(C)c(-c2ccc3c(=O)n(Cc4ccc(C5=CCNCC5)cc4)ccc3c2)c1` [Example 9, N-Methoxy-4-methyl-3-[1-oxo-2-[4-(1,2,3,6-tetrahydro-pyridin-4-yl)-benzyl]-1,2-dihydro-isoquinolin-6-yl]-benzamide] the value was 0.2 nM; for `Cc1ccc(C(=O)NC2CC2)cc1-c1ccc2c(=O)n(Cc3ccc(CN(C)C)cc3)c(C)cc2c1` [Example 96, N-Cyclopropyl-3-(2-(4-((dimethylamino)methyl)benzyl)-3-methyl-1-oxo-1,2-dihydroisoquinolin-6-yl)-4-methylbenzamide], 10 nM.
For `Cc1ccc(C(=O)NC2CC2)cc1-c1ccc2c(=O)n(Cc3ccc(CNC(C)(C)C)cc3)ccc2c1` [Example 28, 3-(2-(4-((Tert-butylamino)methyl)benzyl)-1-oxo-1,2-dihydroisoquinolin-6-yl)-N-cyclopropyl-4-methylbenzamide] the value was 1 nM.
Take `Cc1c(F)cc(C(=O)NC2CC2)cc1-c1ccc2c(=O)n(CC3CC3)cc(CN3CCNC(CO)CC3)c2c1` (centres unmarked) [Example 127, N-Cyclopropyl-3-[2-cyclopropylmethyl-4-(5-hydroxymethyl-[1,4]diazepan-1-ylmethyl)-1-oxo-1,2-dihydro-isoquinolin-6-yl]-5-fluoro-4-methyl-benzamide]: the IC50 was 0.158 nM.
For `Cc1ccc(C(=O)NC2CC2)cc1-c1ccc2c(=O)n(CC3CC3)cc(C(=O)NC3CCN(C)CC3)c2c1` [Example 38, 6-(5-(Cyclopropylcarbamoyl)-2-methylphenyl)-2-(cyclopropylmethyl)-N-(1-methylpiperidin-4-yl)-1-oxo-1,2-dihydroisoquinoline-4-carboxamide] the value was 3.98 nM; for `Cc1ccc(C(=O)NC2CC2)cc1-c1ccc2c(=O)n(Cc3ccc(CN4CCN(C)CC4)cc3)ccc2c1` [Example 26, N-Cyclopropyl-4-methyl-3-(2-(4-((4-methylpiperazin-1-yl)methyl)benzyl)-1-oxo-1,2-dihydroisoquinolin-6-yl)benzamide], 3.16 nM; for `Cc1c(F)cc(C(=O)NC2CC2)cc1-c1ccc2c(=O)n(CC3CC3)cc(CN3CCN[C@@H](C)C3)c2c1` [Example 82, (S)—N-Cyclopropyl-3-(2-(cyclopropylmethyl)-4-((3-methylpiperazin-1-yl)methyl)-1-oxo-1,2-dihydroisoquinolin-6-yl)-5-fluoro-4-methylbenzamide], 0.1 nM.
On to `C=CCn1ccc2cc(-c3cc(C(=O)NC4CC4)ccc3C)ccc2c1=O` [Example 12, 3-(2-Allyl-1-oxo-1,2-dihydro-isoquinolin-6-yl)-N-cyclopropyl-4-methyl-benzamide], for which the IC50 is 7.94 nM.
For `Cc1c(F)cc(C(=O)NC2CC2)cc1-c1ccc2c(=O)n(CC3CC3)cc(CN3CCN(C)CC3)c2c1` [Example 76, N-Cyclopropyl-3-(2-(cyclopropylmethyl)-4-((4-methylpiperazin-1-yl)methyl)-1-oxo-1,2-dihydroisoquinolin-6-yl)-5-fluoro-4-methylbenzamide] the value was 0.1 nM; for `Cc1c(F)cc(C(=O)NC2CC2)cc1-c1ccc2c(=O)n(CC3CC3)cc(CN3CCC(N)CC3)c2c1` [Example 83, 3-(4-((4-Aminopiperidin-1-yl)methyl)-2-(cyclopropylmethyl)-1-oxo-1,2-dihydroisoquinolin-6-yl)-N-cyclopropyl-5-fluoro-4-methylbenzamide], 0.0794 nM.
For `Cc1ccc(C(=O)NC2CC2)cc1-c1ccc2c(=O)n(CC3CCC3)ccc2c1` [Example 124, 3-(2-(Cyclobutylmethyl)-1-oxo-1,2-dihydroisoquinolin-6-yl)-N-cyclopropyl-4-methylbenzamide] the value was 3.98 nM.
Turning to `Cc1ccc(C(=O)NC2CC2)cc1-c1ccc2c(=O)n(Cc3ccccc3CN(C)C)ccc2c1` [Example 16, N-Cyclopropyl-3-[2-(2-dimethylaminomethyl-benzyl)-1-oxo-1,2-dihydro-isoquinolin-6-yl]-4-methyl-benzamide], the IC50 is 50.1 nM.
Take `Cc1ccc(C(=O)NC2CC2)cc1-c1ccc2c(=O)n(CC3CC3)cc(CN3CCCN(CCO)CC3)c2c1` [Example 72, N-Cyclopropyl-3-(2-(cyclopropylmethyl)-4-((4-(2-hydroxyethyl)-1,4-diazepan-1-yl)methyl)-1-oxo-1,2-dihydroisoquinolin-6-yl)-4-methylbenzamide]: the IC50 was 0.398 nM.
In the case of `Cc1ccc(C(=O)NC2CC2)cc1-c1ccc2c(=O)n(Cc3ccncc3)cc(C(=O)NC3CCNCC3)c2c1` [Example 57, 6-(5-Cyclopropylcarbamoyl-2-methyl-phenyl)-1-oxo-2-pyridin-4-ylmethyl-1,2-dihydro-isoquinoline-4-carboxylic acid piperidin-4-ylamide], the IC50 was 1.58 nM.
For `Cc1ccc(C(=O)NC2CC2)cc1-c1ccc2c(=O)n(Cc3ccc(C(=O)N(C)CCN(C)C)cc3)ccc2c1` [Example 18, N-Cyclopropyl-3-(2-(4-((2-(dimethylamino)ethyl)(methyl)carbamoyl)benzyl)-1-oxo-1,2-dihydroisoquinolin-6-yl)-4-methylbenzamide] the value was 2 nM; for `Cc1ccc(C(=O)NC2CC2)cc1-c1ccc2c(=O)n(CC3CC3)cc(CN3CCC(N)CC3)c2c1` [Example 66, 3-(4-((4-Aminopiperidin-1-yl)methyl)-2-(cyclopropylmethyl)-1-oxo-1,2-dihydroisoquinolin-6-yl)-N-cyclopropyl-4-methylbenzamide], 0.158 nM; for `CNCCN(C)C(=O)c1ccc(Cn2ccc3cc(-c4cc(C(=O)NC5CC5)ccc4C)ccc3c2=O)cc1` [Example 23, N-Cyclopropyl-4-methyl-3-(2-(4-(methyl(2-(methylamino)ethyl)carbamoyl)benzyl)-1-oxo-1,2-dihydroisoquinolin-6-yl)benzamide], 2 nM.
For `Cc1c(F)cc(C(=O)NC2CC2)cc1-c1ccc2c(=O)n(CC3CC3)cc(CN3C[C@@H](N)C[C@@H]3CO)c2c1` [Example 119, 3-(4-(((2R,4S)-4-Amino-2-(hydroxymethyl)pyrrolidin-1-yl)methyl)-2-(cyclopropylmethyl)-1-oxo-1,2-dihydroisoquinolin-6-yl)-N-cyclopropyl-5-fluoro-4-methylbenzamide] the value was 0.398 nM.
For `Cc1ccc(C(=O)NC2CC2)cc1-c1ccc2c(=O)n(Cc3ccc(OCCN(C)C)nc3)ccc2c1` [Example 30, N-Cyclopropyl-3-(2-((6-(2-(dimethylamino)ethoxy)pyridin-3-yl)methyl)-1-oxo-1,2-dihydroisoquinolin-6-yl)-4-methylbenzamide] the value was 1 nM; for `COc1ccc(Cn2ccc3cc(-c4cc(C(=O)NC5CC5)ccc4C)ccc3c2=O)cc1` [Example 17, N-Cyclopropyl-3-[2-(4-methoxy-benzyl)-1-oxo-1,2-dihydro-isoquinolin-6-yl]-4-methyl-benzamide], 1 nM.
As to `Cc1c(F)cc(C(=O)NC2CC2)cc1-c1ccc2c(=O)n(CC3CC3)cc(CN3CCNC[C@H]3C)c2c1` [Example 86, (R)—N-Cyclopropyl-3-(2-(cyclopropylmethyl)-4-((2-methylpiperazin-1-yl)methyl)-1-oxo-1,2-dihydroisoquinolin-6-yl)-5-fluoro-4-methylbenzamide], the IC50 was 0.0794 nM.
For `Cc1ccc(C(=O)NC2CC2)cc1-c1ccc2c(=O)n(CC3CC3)cc(C(=O)N3CCN(C)CC3)c2c1` [Example 39, N-Cyclopropyl-3-(2-(cyclopropylmethyl)-4-(4-methylpiperazine-1-carbonyl)-1-oxo-1,2-dihydroisoquinolin-6-yl)-4-methylbenzamide] the value was 5.01 nM.
